Data reported in US20020035061A1, “COMPOSITIONS AND METHODS FOR TREATING INFECTIONS USING CATIONIC PEPTIDES ALONE OR IN COMBINATION WITH ANTIBIOTICS” (priority 1996, published 2002).
Read-outs that look alike come from different tables or passages of the source.

Tests used:
Format in all cases: cell-based
S. aureus = conditions: for Peptide MIC values: agarose dilution
H. influenzae = test: Agarose dilution assay (MIC); conditions: H. influenzae HIN002
K. pneumoniae = K. pneumoniae KP002
bacterial isolates = test: microbe, parasite or virus in culture
S. epidermidis = S. epidermidis SE002
[1] = S. aureus SA014 (also SA014 MRSA)
[2] = S. aureus SA025 (also SA025 MRSA)

Sequence: ILKKFPFFPFRRK [MBI 11A1CN]
- MIC (S. aureus; S. aureus SA005): 8 µg/mL
- Peptide MIC values (S. aureus; S. aureus ATCC 29213): 2 µg/mL
- Peptide MIC values (S. aureus; S. aureus MRSA9): 8 µg/mL
- Peptide MIC values (S. aureus; S. aureus MRSA13): >128 µg/mL
- Peptide MIC values (S. aureus; S. aureus MRSA17): 32 µg/mL
- Peptide MIC values (S. aureus; S. aureus SA206): 128 µg/mL
- MIC (H. influenzae): >128 µg/mL
- MIC (K. pneumoniae): >128 µg/mL
- Peptide MIC Alone (bacterial isolates; 3. Ciprofloxacin, S. aureus SA10): 128 µg/mL
- Peptide MIC Alone (bacterial isolates; 3. Ciprofloxacin, S. aureus SA11): >128 µg/mL
- Peptide MIC Alone (bacterial isolates; 4. Gentamicin, E. faecium EFM004): 32 µg/mL
- Peptide MIC Alone (bacterial isolates; 4. Gentamicin, S. aureus SA014 MRSA): 8 µg/mL
- Peptide MIC Alone (bacterial isolates; 4. Gentamicin, S. epidermidis SE074): 32 µg/mL
- Peptide MIC Alone (bacterial isolates; 4. Gentamicin, S. maltophilia SMA019): >128 µg/mL
- Peptide MIC Alone (bacterial isolates; 4. Gentamicin, S. maltophilia SMA020): >128 µg/mL
- Mupirocin MIC + Peptide (bacterial isolates; E. coli ECO1): 10 µg/mL
- Peptide MIC + Mupirocin (bacterial isolates; E. coli ECO1): 4 µg/mL
- Peptide MIC Alone (bacterial isolates; E. coli ECO1, Mupirocin section): 32 µg/mL
- Mupirocin MIC + Peptide (bacterial isolates; E. coli SBECO2): 30 µg/mL
- Peptide MIC + Mupirocin (bacterial isolates; E. coli SBECO2): 2 µg/mL
- Peptide MIC Alone (bacterial isolates; E. coli SBECO2, Mupirocin section): 128 µg/mL
- Peptide MIC + Vancomycin (bacterial isolates; E. faecalis EFS001): 0.125 µg/mL
- Peptide MIC Alone (bacterial isolates; E. faecalis EFS001): 4 µg/mL
- Vancomycin MIC + Peptide (bacterial isolates; E. faecalis EFS001): 0.5 µg/mL
- Peptide MIC + Vancomycin (bacterial isolates; E. faecalis EFS006): 0.25 µg/mL
- Peptide MIC Alone (bacterial isolates; E. faecalis EFS006): 128 µg/mL
- Vancomycin MIC + Peptide (bacterial isolates; E. faecalis EFS006): 4 µg/mL
- Peptide MIC + Vancomycin (bacterial isolates; E. faecalis EFS007): 0.5 µg/mL
- Peptide MIC Alone (bacterial isolates; E. faecalis EFS007): 128 µg/mL
- Vancomycin MIC + Peptide (bacterial isolates; E. faecalis EFS007): 2 µg/mL
- Peptide MIC + Vancomycin (bacterial isolates; E. faecalis EFS010): 2 µg/mL
- Peptide MIC Alone (bacterial isolates; E. faecalis EFS010): 128 µg/mL
- Vancomycin MIC + Peptide (bacterial isolates; E. faecalis EFS010): 4 µg/mL
- Peptide MIC + Vancomycin (bacterial isolates; E. faecalis EFS012): 8 µg/mL
- Peptide MIC Alone (bacterial isolates; E. faecalis EFS012): 64 µg/mL
- Vancomycin MIC + Peptide (bacterial isolates; E. faecalis EFS012): 32 µg/mL
- Peptide MIC + Vancomycin (bacterial isolates; E. faecalis EFS014): 2 µg/mL
- Peptide MIC Alone (bacterial isolates; E. faecalis EFS014): 4 µg/mL
- Vancomycin MIC + Peptide (bacterial isolates; E. faecalis EFS014): 1 µg/mL
- Gentamicin MIC + Peptide (bacterial isolates; E. faecium EFM004): 64 µg/mL
- Peptide MIC + Gentamicin (bacterial isolates; E. faecium EFM004): 1 µg/mL
- Peptide MIC + Vancomycin (bacterial isolates; E. faecium EFM004): 16 µg/mL
- Peptide MIC Alone (bacterial isolates; E. faecium EFM004): 32 µg/mL
- Vancomycin MIC + Peptide (bacterial isolates; E. faecium EFM004): 0.5 µg/mL
- Peptide MIC + Vancomycin (bacterial isolates; E. faecium EFM007): 16 µg/mL
- Peptide MIC Alone (bacterial isolates; E. faecium EFM007): 64 µg/mL
- Vancomycin MIC + Peptide (bacterial isolates; E. faecium EFM007): 4 µg/mL
- Peptide MIC + Vancomycin (bacterial isolates; E. faecium EFM009): 8 µg/mL
- Peptide MIC Alone (bacterial isolates; E. faecium EFM009): 64 µg/mL
- Vancomycin MIC + Peptide (bacterial isolates; E. faecium EFM009): 4 µg/mL
- Peptide MIC + Tobramycin (bacterial isolates; P. aeruginosa PA026): 0.125 µg/mL
- Tobramycin MIC + Peptide (bacterial isolates; P. aeruginosa PA026): 4 µg/mL
- Peptide MIC Alone (bacterial isolates; P. aeruginosa PA026, Tobramycin section): >128 µg/mL
- Peptide MIC + Tobramycin (bacterial isolates; P. aeruginosa PA032): 0.5 µg/mL
- Tobramycin MIC + Peptide (bacterial isolates; P. aeruginosa PA032): 8 µg/mL
- Peptide MIC Alone (bacterial isolates; P. aeruginosa PA032, Tobramycin section): >128 µg/mL
- Ciprofloxacin MIC + Peptide (bacterial isolates; S. aureus SA10): 16 µg/mL
- Peptide MIC + Ciprofloxacin (bacterial isolates; S. aureus SA10): 4 µg/mL
- Ciprofloxacin MIC + Peptide (bacterial isolates; S. aureus SA11): 32 µg/mL
- Peptide MIC + Ciprofloxacin (bacterial isolates; S. aureus SA11): 1 µg/mL
- Peptide MIC + Tobramycin (bacterial isolates; [1]): 8 µg/mL
- Tobramycin MIC + Peptide (bacterial isolates; [1]): 0.125 µg/mL
- Peptide MIC Alone (bacterial isolates; S. aureus SA014 (also SA014 MRSA), Tobramycin section): 16 µg/mL
- Gentamicin MIC + Peptide (bacterial isolates; S. aureus SA014 MRSA): 2 µg/mL
- Peptide MIC + Gentamicin (bacterial isolates; S. aureus SA014 MRSA): 4 µg/mL
- Peptide MIC + Tobramycin (bacterial isolates; [2]): 4 µg/mL
- Tobramycin MIC + Peptide (bacterial isolates; [2]): 0.125 µg/mL
- Peptide MIC Alone (bacterial isolates; S. aureus SA025 (also SA025 MRSA), Tobramycin section): 8 µg/mL
- Gentamicin MIC + Peptide (bacterial isolates; S. epidermidis SE074): 1 µg/mL
- Peptide MIC + Gentamicin (bacterial isolates; S. epidermidis SE074): 16 µg/mL
- Peptide MIC + Tobramycin (bacterial isolates; S. haemolyticus SHA001): 0.125 µg/mL
- Tobramycin MIC + Peptide (bacterial isolates; S. haemolyticus SHA001): 2 µg/mL
- Peptide MIC Alone (bacterial isolates; S. haemolyticus SHA001, Tobramycin section): 8 µg/mL
- Peptide MIC + Tobramycin (bacterial isolates; S. haemolyticus SHA005): 0.125 µg/mL
- Tobramycin MIC + Peptide (bacterial isolates; S. haemolyticus SHA005): 4 µg/mL
- Peptide MIC Alone (bacterial isolates; S. haemolyticus SHA005, Tobramycin section): 16 µg/mL
- Gentamicin MIC + Peptide (bacterial isolates; S. maltophilia SMA019): 2 µg/mL
- Peptide MIC + Gentamicin (bacterial isolates; S. maltophilia SMA019): 16 µg/mL
- Gentamicin MIC + Peptide (bacterial isolates; S. maltophilia SMA020): 2 µg/mL
- Peptide MIC + Gentamicin (bacterial isolates; S. maltophilia SMA020): 16 µg/mL
- Peptide MIC + Tobramycin (bacterial isolates; S. maltophilia SMA029): 32 µg/mL
- Tobramycin MIC + Peptide (bacterial isolates; S. maltophilia SMA029): 4 µg/mL
- Peptide MIC Alone (bacterial isolates; S. maltophilia SMA029, Tobramycin section): >128 µg/mL
- Peptide MIC + Tobramycin (bacterial isolates; S. maltophilia SMA030): 64 µg/mL
- Tobramycin MIC + Peptide (bacterial isolates; S. maltophilia SMA030): 2 µg/mL
- Peptide MIC Alone (bacterial isolates; S. maltophilia SMA030, Tobramycin section): >128 µg/mL
- FIC (bacterial isolates; peptide + Ciprofloxacin, S. aureus SA10): 0.53
- FIC (bacterial isolates; peptide + Ciprofloxacin, S. aureus SA11): 0.50
- FIC (bacterial isolates; peptide + Gentamicin, E. faecium EFM004): 0.28
- FIC (bacterial isolates; peptide + Gentamicin, S. aureus SA014 MRSA): 0.56
- FIC (bacterial isolates; peptide + Gentamicin, S. epidermidis SE074): 0.51
- FIC (bacterial isolates; peptide + Gentamicin, S. maltophilia SMA019): 0.31
- FIC (bacterial isolates; peptide + Gentamicin, S. maltophilia SMA020): 0.31
- FIC (bacterial isolates; peptide + Mupirocin, E. coli ECO1): 0.14
- FIC (bacterial isolates; peptide + Mupirocin, E. coli SBECO2): 0.05
- FIC (bacterial isolates; peptide + Tobramycin, P. aeruginosa PA026): 0.50
- FIC (bacterial isolates; peptide + Tobramycin, P. aeruginosa PA032): 0.50
- FIC (bacterial isolates; peptide + Tobramycin, S. aureus SA014 (also SA014 MRSA)): 0.50
- FIC (bacterial isolates; peptide + Tobramycin, S. aureus SA025 (also SA025 MRSA)): 0.50
- FIC (bacterial isolates; peptide + Tobramycin, S. haemolyticus SHA001): 0.52
- FIC (bacterial isolates; peptide + Tobramycin, S. haemolyticus SHA005): 0.51
- FIC (bacterial isolates; peptide + Tobramycin, S. maltophilia SMA029): 0.16
- FIC (bacterial isolates; peptide + Tobramycin, S. maltophilia SMA030): 0.27
- FIC (bacterial isolates; peptide + Vancomycin, E. faecalis EFS001): 0.53
- FIC (bacterial isolates; peptide + Vancomycin, E. faecalis EFS006): 0.50
- FIC (bacterial isolates; peptide + Vancomycin, E. faecalis EFS007): 0.50
- FIC (bacterial isolates; peptide + Vancomycin, E. faecalis EFS010): 0.27
- FIC (bacterial isolates; peptide + Vancomycin, E. faecalis EFS012): 0.25
- FIC (bacterial isolates; peptide + Vancomycin, E. faecalis EFS014): 0.51
- FIC (bacterial isolates; peptide + Vancomycin, E. faecium EFM004): 0.50
- FIC (bacterial isolates; peptide + Vancomycin, E. faecium EFM007): 0.28
- FIC (bacterial isolates; peptide + Vancomycin, E. faecium EFM009): 0.25
- MIC (S. epidermidis): 16 µg/mL
